{"source": "DBAASP", "assay_in_all_cases": "≥ marks a high value that may be exact or a test limit, other limits are often not marked, values filed in µg/mL are converted to µM", "key": {"[1]": {"tested_on": "Acinetobacter baumannii 97830"}, "[2]": {"tested_on": "Acinetobacter baumannii 9840"}, "Acinetobacter baumannii": {"tested_on": "Acinetobacter baumannii"}, "[3]": {"tested_on": "Bacillus subtilis ATCC 23857"}, "[4]": {"tested_on": "Candida albicans NCPF 1467"}, "[5]": {"tested_on": "Escherichia coli ATCC 25922"}, "[6]": {"tested_on": "Escherichia coli NCTC 10418"}, "[7]": {"tested_on": "Pseudomonas aeruginosa 1570"}, "[8]": {"tested_on": "Pseudomonas aeruginosa 5167"}, "[9]": {"tested_on": "Pseudomonas aeruginosa ATCC 15692"}, "[10]": {"tested_on": "Salmonella enterica subsp. enterica serovar Typhimurium ATCC 14028"}, "[11]": {"tested_on": "Staphylococcus aureus 113"}, "[12]": {"tested_on": "Staphylococcus aureus 725"}, "Staphylococcus aureus 75": {"tested_on": "Staphylococcus aureus 75"}, "[13]": {"tested_on": "Staphylococcus aureus 794"}, "[14]": {"tested_on": "Staphylococcus aureus 936"}, "[15]": {"tested_on": "Staphylococcus aureus ATCC 25923"}, "[16]": {"tested_on": "Staphylococcus aureus ATCC 33591"}, "[17]": {"tested_on": "Staphylococcus aureus NCTC 10788"}, "[18]": {"tested_on": "Staphylococcus epidermidis ATCC 12228"}, "[19]": {"tested_on": "Bacillus anthracis Sterne 34F2"}, "[20]": {"tested_on": "Bacillus subtilis ATCC 9372"}, "[21]": {"tested_on": "Bacillus subtilis KCTC 3068"}, "[22]": {"tested_on": "Burkholderia thailandensis"}, "[23]": {"tested_on": "Escherichia coli KCTC 1682"}, "[24]": {"tested_on": "Pseudomonas aeruginosa CCARM 2092"}, "[25]": {"tested_on": "Pseudomonas aeruginosa CCARM 2095"}, "[26]": {"tested_on": "Pseudomonas aeruginosa CCARM 2109"}, "[27]": {"tested_on": "Pseudomonas aeruginosa KCTC 1637"}, "[28]": {"tested_on": "Salmonella typhimurium KCTC 1926"}, "[29]": {"tested_on": "Staphylococcus aureus CCARM 3001"}, "[30]": {"tested_on": "Staphylococcus aureus CCARM 3089"}, "[31]": {"tested_on": "Staphylococcus aureus CCARM 3543"}, "[32]": {"tested_on": "Staphylococcus aureus KCTC 1621"}, "[33]": {"tested_on": "Staphylococcus epidermidis KCTC 1917"}, "[34]": {"tested_on": "Actinomyces israelii ATCC 12102"}, "[35]": {"tested_on": "Candida albicans ATCC 26790"}, "[36]": {"tested_on": "Enterococcus faecalis ATCC 51299"}, "[37]": {"tested_on": "Enterococcus faecium ATCC 51559"}, "[38]": {"tested_on": "Fusobacterium nucleatum NCTC 11326"}, "[39]": {"tested_on": "Porphyromonas gingivalis ATCC 33277"}, "[40]": {"tested_on": "Staphylococcus aureus CCARM 3090"}, "[41]": {"tested_on": "Staphylococcus aureus CCARM 3095"}, "[42]": {"tested_on": "Streptococcus mutans ATCC 25175"}, "Cupriavidus necator H16": {"tested_on": "Cupriavidus necator H16"}, "[43]": {"tested_on": "Escherichia coli BL21(DE3)"}, "Escherichia coli JM109": {"tested_on": "Escherichia coli JM109"}, "[44]": {"tested_on": "Pseudomonas putida GPp104"}, "[45]": {"tested_on": "Enterococcus faecium ATCC 35667"}, "[46]": {"tested_on": "Escherichia coli CGSC 5167"}, "[47]": {"tested_on": "Klebsiella pneumoniae ATCC 13883"}, "[48]": {"tested_on": "Klebsiella pneumoniae ATCC 700603"}, "[49]": {"tested_on": "Pseudomonas aeruginosa ATCC 10145"}, "[50]": {"tested_on": "Pseudomonas aeruginosa ATCC 27853"}, "[51]": {"tested_on": "Streptococcus pneumoniae ATCC 33400"}, "[52]": {"tested_on": "Streptococcus pneumoniae ATCC 700677"}}, "note": "Several values for one entry are separate records, joined by “and”; a condition that tells them apart may be missing. Equal entries are not always repeated."}
{"compound": "CC(C)C[C@H](NC(=O)[C@H](CC(C)C)NC(=O)[C@H](CCCCN)NC(=O)[C@H](CCCCN)NC(=O)[C@H](CC(C)C)NC(=O)[C@H](CC(C)C)NC(=O)[C@H](CCCCN)NC(=O)[C@H](CC(C)C)NC(=O)[C@@H](N)Cc1ccccc1)C(N)=O", "note": "[FLKLLKKLL]", "values": [{"measurement": "MIC", "setting": "[1]", "value": 7.17, "unit": "µM"}, {"measurement": "MIC", "setting": "[2]", "value": 10.1, "unit": "µM"}, {"measurement": "MIC", "setting": "Acinetobacter baumannii", "value": 10.1, "unit": "µM"}, {"measurement": "MIC", "setting": "[3]", "value": 3.59, "unit": "µM"}, {"measurement": "MIC", "setting": "[4]", "value": 7, "unit": "µM"}, {"measurement": "MIC", "setting": "[5]", "value": 28.7, "unit": "µM"}, {"measurement": "MIC", "setting": "[6]", "value": 14, "unit": "µM"}, {"measurement": "MIC", "setting": "[7]", "value": 7.17, "unit": "µM"}, {"measurement": "MIC", "setting": "[8]", "value": 14.3, "unit": "µM"}, {"measurement": "MIC", "setting": "[9]", "value": 7.17, "unit": "µM"}, {"measurement": "MIC", "setting": "[10]", "value": 14.3, "unit": "µM"}, {"measurement": "MIC", "setting": "[11]", "value": 7.17, "unit": "µM"}, {"measurement": "MIC", "setting": "[12]", "value": 7.17, "unit": "µM"}, {"measurement": "MIC", "setting": "Staphylococcus aureus 75", "value": 7.17, "unit": "µM"}, {"measurement": "MIC", "setting": "[13]", "value": 14.3, "unit": "µM"}, {"measurement": "MIC", "setting": "[14]", "value": 7.17, "unit": "µM"}, {"measurement": "MIC", "setting": "[15]", "value": 14.3, "unit": "µM"}, {"measurement": "MIC", "setting": "[16]", "value": "7.17 µM and 14.3 µM"}, {"measurement": "MIC", "setting": "[17]", "value": 7, "unit": "µM"}, {"measurement": "MIC", "setting": "[18]", "value": 14.3, "unit": "µM"}]}
{"compound": "CC(C)[C@H](NC(=O)[C@H](CCCCN)NC(=O)[C@H](CCCN=C(N)N)NC(=O)[C@H](CCCCN)NC(=O)[C@H](CCCCN)NC(=O)[C@H](CCCCN)NC(=O)[C@@H]1CCCN1C(=O)[C@H](CCC(N)=O)NC(=O)[C@H](CO)NC(=O)[C@H](Cc1c[nH]c2ccccc12)NC(=O)[C@H](CCCCN)NC(=O)[C@@H](NC(=O)[C@H](Cc1c[nH]c2ccccc12)NC(=O)[C@H](Cc1c[nH]c2ccccc12)NC(=O)[C@@H](NC(=O)[C@H](CCCCN)NC(=O)[C@H](Cc1c[nH]c2ccccc12)NC(=O)[C@H](Cc1c[nH]c2ccccc12)NC(=O)[C@@H](NC(=O)[C@H](CCCCN)NC(=O)[C@@H](N)CCCCN)[C@@H](C)O)[C@@H](C)O)[C@@H](C)O)C(=O)O", "note": "[KKTWWKTWWTKWSQPKKKRKV]", "values": [{"measurement": "MIC", "setting": "[19]", "value": "≥ 59", "unit": "µM"}, {"measurement": "MIC", "setting": "[20]", "value": 3.3, "unit": "µM"}, {"measurement": "MIC", "setting": "[21]", "value": 2, "unit": "µM"}, {"measurement": "MIC", "setting": "[22]", "value": "≥ 100", "unit": "µM"}, {"measurement": "MIC", "setting": "[23]", "value": 2, "unit": "µM"}, {"measurement": "MIC", "setting": "[24]", "value": 8, "unit": "µM"}, {"measurement": "MIC", "setting": "[25]", "value": 8, "unit": "µM"}, {"measurement": "MIC", "setting": "[26]", "value": 8, "unit": "µM"}, {"measurement": "MIC", "setting": "[27]", "value": 2.83, "unit": "µM"}, {"measurement": "MIC", "setting": "[28]", "value": 1.41, "unit": "µM"}, {"measurement": "MIC", "setting": "[29]", "value": 2, "unit": "µM"}, {"measurement": "MIC", "setting": "[30]", "value": 2, "unit": "µM"}, {"measurement": "MIC", "setting": "[31]", "value": 1, "unit": "µM"}, {"measurement": "MIC", "setting": "[32]", "value": 2, "unit": "µM"}, {"measurement": "MIC", "setting": "[33]", "value": 1.41, "unit": "µM"}]}
{"compound": "CC[C@H](C)[C@H](NC(=O)[C@H](CC(C)C)NC(=O)[C@H](CCCCN)NC(=O)[C@@H](NC(=O)[C@@H](NC(=O)[C@H](CCCN=C(N)N)NC(=O)[C@@H](N)CCCCN)[C@@H](C)CC)C(C)C)C(=O)N[C@@H](CC(C)C)C(=O)N[C@@H](CCCCN)C(=O)N[C@@H](Cc1c[nH]c2ccccc12)C(=O)N[C@@H](CC(C)C)C(=O)N[C@@H](CCCN=C(N)N)C(N)=O", "note": "[KRIVKLILKWLR]", "values": [{"measurement": "MIC", "setting": "[34]", "value": 2.5, "unit": "µM"}, {"measurement": "MIC", "setting": "[21]", "value": 5.66, "unit": "µM"}, {"measurement": "MIC", "setting": "[35]", "value": 9.97, "unit": "µM"}, {"measurement": "MIC", "setting": "[36]", "value": "≥ 39.9", "unit": "µM"}, {"measurement": "MIC", "setting": "[37]", "value": 4, "unit": "µM"}, {"measurement": "MIC", "setting": "[23]", "value": 8, "unit": "µM"}, {"measurement": "MIC", "setting": "[38]", "value": 4.99, "unit": "µM"}, {"measurement": "MIC", "setting": "[39]", "value": 2.5, "unit": "µM"}, {"measurement": "MIC", "setting": "[25]", "value": 16, "unit": "µM"}, {"measurement": "MIC", "setting": "[26]", "value": 8, "unit": "µM"}, {"measurement": "MIC", "setting": "[27]", "value": 8, "unit": "µM"}, {"measurement": "MIC", "setting": "[28]", "value": 2.83, "unit": "µM"}, {"measurement": "MIC", "setting": "[30]", "value": 4, "unit": "µM"}, {"measurement": "MIC", "setting": "[40]", "value": 8, "unit": "µM"}, {"measurement": "MIC", "setting": "[41]", "value": 4, "unit": "µM"}, {"measurement": "MIC", "setting": "[33]", "value": 2, "unit": "µM"}, {"measurement": "MIC", "setting": "[42]", "value": 2.5, "unit": "µM"}]}
{"compound": "CC[C@H](C)[C@H](NC(=O)[C@H](Cc1ccc(O)cc1)NC(=O)[C@@H](NC(=O)[C@@H]1CCCN1C(=O)[C@H](CCCN=C(N)N)NC(=O)[C@@H]1CCCN1C(=O)[C@H](CC(N)=O)NC(=O)[C@@H](N)CCCN=C(N)N)C(C)C)C(=O)N1CCC[C@H]1C(=O)N[C@@H](CCC(N)=O)C(=O)N1CCC[C@H]1C(=O)N[C@@H](CCCN=C(N)N)C(=O)N1CCC[C@H]1C(=O)N1CCC[C@H]1C(=O)N[C@@H](Cc1cnc[nH]1)C(=O)N1CCC[C@H]1C(=O)N[C@@H](CCCN=C(N)N)C(=O)N[C@@H](CC(C)C)C(=O)O", "note": "[RNPRPVYIPQPRPPHPRL]", "values": [{"measurement": "MIC", "setting": "Cupriavidus necator H16", "value": 25, "unit": "µM"}, {"measurement": "MIC", "setting": "[43]", "value": 0.313, "unit": "µM"}, {"measurement": "MIC", "setting": "Escherichia coli JM109", "value": 6.25, "unit": "µM"}, {"measurement": "MIC", "setting": "[44]", "value": 6.25, "unit": "µM"}]}
{"compound": "CC[C@H](C)[C@H](NC(=O)[C@H](CCCN=C(N)N)NC(=O)[C@H](CCCN=C(N)N)NC(=O)[C@H](Cc1ccccc1)NC(=O)[C@H](CC(C)C)NC(=O)[C@H](CCCN=C(N)N)NC(=O)[C@@H](N)CCCN=C(N)N)C(=O)N[C@@H](CC(C)C)C(=O)N[C@@H](CCCN=C(N)N)C(=O)N[C@@H](Cc1ccc(O)cc1)C(=O)N[C@@H](CC(C)C)C(N)=O", "note": "[RRLFRRILRYL]", "values": [{"measurement": "MIC", "setting": "[45]", "value": 4, "unit": "µM"}, {"measurement": "MIC", "setting": "[37]", "value": 2, "unit": "µM"}, {"measurement": "MIC", "setting": "[5]", "value": 0.9, "unit": "µM"}, {"measurement": "MIC", "setting": "[46]", "value": 0.4, "unit": "µM"}, {"measurement": "MIC", "setting": "[47]", "value": 0.3, "unit": "µM"}, {"measurement": "MIC", "setting": "[48]", "value": 0.6, "unit": "µM"}, {"measurement": "MIC", "setting": "[49]", "value": 2, "unit": "µM"}, {"measurement": "MIC", "setting": "[50]", "value": 1.5, "unit": "µM"}, {"measurement": "MIC", "setting": "[15]", "value": 6, "unit": "µM"}, {"measurement": "MIC", "setting": "[16]", "value": 3, "unit": "µM"}, {"measurement": "MIC", "setting": "[51]", "value": 5, "unit": "µM"}, {"measurement": "MIC", "setting": "[52]", "value": 4, "unit": "µM"}]}
